From BindingDB's records for doi:10.1021/jm00112a042 (Zambeletti Research Laboratories, 1991) come the findings set out here.

“And” between values parts separate entries of the source, which are not always exact repeats. Equal values may be shown once.

A word on the Ki: it is a measure of affinity in units of concentration, obtained from inhibition or displacement.

A short description of one assay: Affinity for opioid receptor delta sites.
For the molecule `O=C(Cc1ccc(C(F)(F)F)cc1)N1CCc2sccc2C1CN1CCCCC1` (stereo unspecified), the Ki is greater than 1 µM.
Same read-out and setting: for `O=C(Cc1ccc(Cl)c(Cl)c1)N1CCc2ccsc2C1CN1CCCC1` (stereo unspecified) the value was 0.362 µM.
Same read-out and setting: the figure for `O=C(Cc1ccc(Cl)c(Cl)c1)N1CCc2sccc2C1CN1CCCCC1` (stereo unspecified) is greater than 1 µM.
Same read-out and setting: for `O=C(Cc1ccc(Cl)c(Cl)c1)N1CCCC[C@H]1CN1CCCC1` [2-(3,4-Dichloro-phenyl)-1-(2-pyrrolidin-1-ylmethyl-piperidin-1-yl)-ethanone] the value was 1 µM; for `O=C(Cc1ccc(Cl)c(Cl)c1)N1CCc2[nH]c3ccccc3c2C1CN1CCCC1` (stereo unspecified), greater than 1 µM; for `O=C(Cc1ccc(Cl)c(Cl)c1)N1CCc2sccc2C1CN1CCCC1` (stereo unspecified), 0.153 µM.

Another assay is described as follows: Binding affinity was measured on opioid receptor delta sites.
For `O=C(Cc1ccc(Cl)c(Cl)c1)N1CCc2c([nH]c3ccccc23)C1CN1CCCC1` (stereo unspecified), the Ki is greater than 1 µM.
Same read-out and setting: the figure for `O=C(Cc1ccc(C(F)(F)F)cc1)N1CCc2ccccc2C1CN1CCCCC1` (stereo unspecified) is greater than 1 µM; for `O=C(Cc1ccc(C(F)(F)F)cc1)N1CCc2ccccc2[C@H]1CN1CCCC1` it is > 1 µM and 0.149 µM.
The same measure, in the same setting: for `CN(C)CC1c2ccccc2CCN1C(=O)Cc1ccc(Cl)c(Cl)c1` (stereo unspecified) the value was 0.746 µM; for `O=C(Cc1ccc(C(F)(F)F)cc1)N1CCCC[C@H]1CN1CCCC1` [1-(2-Pyrrolidin-1-ylmethyl-piperidin-1-yl)-2-(4-trifluoromethyl-phenyl)-ethanone], 1 µM.
